Results published in patent US11780830B2, “Triazolone derivatives or salts thereof and pharmaceutical compositions comprising the same” (YUHAN CORPORATION, priority 2018, dated 2023).
Structures can show the parent of a compound that is named as a salt.

Legend:
Assay type in all cases: biochemical
[1] = biological target: T1, recombinant human MAO-A (monoamine oxidase-A) (Homo sapiens, UniProt P21397); assay: Activity on recombinant human MAO-A, method similar to the VAP-1 assay; settings: substrate 0.5 mM tyramine; read-out: Inhibitory Activity (IC50, nM) MAO-A
T1 construct: purchased Sigma-Aldrich
T1 sequence (P21397 1-527): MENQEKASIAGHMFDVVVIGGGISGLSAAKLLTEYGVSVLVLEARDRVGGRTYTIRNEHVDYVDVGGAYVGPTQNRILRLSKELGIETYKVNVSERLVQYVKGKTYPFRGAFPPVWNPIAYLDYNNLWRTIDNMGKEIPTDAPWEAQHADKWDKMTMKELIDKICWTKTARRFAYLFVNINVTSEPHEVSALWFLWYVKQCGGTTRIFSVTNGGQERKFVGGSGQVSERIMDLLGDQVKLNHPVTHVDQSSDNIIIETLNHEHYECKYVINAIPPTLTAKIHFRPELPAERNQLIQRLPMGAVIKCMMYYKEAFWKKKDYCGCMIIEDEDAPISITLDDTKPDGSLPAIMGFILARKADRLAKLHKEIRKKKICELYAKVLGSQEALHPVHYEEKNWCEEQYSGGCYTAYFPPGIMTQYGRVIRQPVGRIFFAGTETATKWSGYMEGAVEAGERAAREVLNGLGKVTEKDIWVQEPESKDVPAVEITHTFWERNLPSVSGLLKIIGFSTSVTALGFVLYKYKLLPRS
Outline: (§1)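 Amplex Red/HRP coupled read-out of H2O2 with 0.5 mM tyramine for MAO-A or 1 mM benzylamine for MAO-B, following a 30-min compound–enzyme preincubation at 37° C. IC50 from percent inhibition of signal rate relative to uninhibited control.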

recombinant human VAP-1 = biological target: T2, recombinant human VAP-1 (Homo sapiens, UniProt Q16853); assay: Activity on recombinant human VAP-1, HRP-coupled Amplex Red hydrogen peroxide assay; settings: substrate 1 mM benzylamine; compound incubated with enzyme at 37° C. for 30 minutes; pH 7.4; read-out: Inhibitory Activity (IC50, nM) human VAP-1
T2 construct: purchased R&D systems
T2 sequence (Q16853 1-763): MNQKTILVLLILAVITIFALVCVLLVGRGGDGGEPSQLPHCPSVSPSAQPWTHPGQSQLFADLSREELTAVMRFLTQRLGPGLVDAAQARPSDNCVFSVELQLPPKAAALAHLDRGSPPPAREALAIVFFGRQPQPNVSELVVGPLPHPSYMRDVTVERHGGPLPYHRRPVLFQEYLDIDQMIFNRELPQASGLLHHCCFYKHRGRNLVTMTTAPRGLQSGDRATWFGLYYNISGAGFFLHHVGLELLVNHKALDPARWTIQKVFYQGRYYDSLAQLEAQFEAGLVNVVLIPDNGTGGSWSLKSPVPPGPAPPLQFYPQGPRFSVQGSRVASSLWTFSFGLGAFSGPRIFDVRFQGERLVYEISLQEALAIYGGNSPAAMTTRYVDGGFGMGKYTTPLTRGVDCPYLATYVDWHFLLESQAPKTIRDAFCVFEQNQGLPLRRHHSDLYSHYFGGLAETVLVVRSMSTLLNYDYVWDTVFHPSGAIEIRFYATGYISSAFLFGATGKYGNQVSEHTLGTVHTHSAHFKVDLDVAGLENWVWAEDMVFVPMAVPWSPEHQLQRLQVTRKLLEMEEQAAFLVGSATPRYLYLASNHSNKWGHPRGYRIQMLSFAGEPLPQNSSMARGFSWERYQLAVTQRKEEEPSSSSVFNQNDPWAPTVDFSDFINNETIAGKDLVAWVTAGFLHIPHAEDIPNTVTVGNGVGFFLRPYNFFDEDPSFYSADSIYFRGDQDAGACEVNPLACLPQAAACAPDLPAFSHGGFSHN
Outline: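 Dose-response IC50 determined from reduction in resorufin signal rate (544/590 nm, 1-2 h), with 30 min compound preincubation at 37 °C and 1 mM benzylamine as substrate.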

[2] = biological target: T3, recombinant human MAO-B (monoamine oxidase-B) (Homo sapiens, UniProt P27338); assay: Activity on recombinant human MAO-B, method similar to the VAP-1 assay; settings: substrate 1 mM benzylamine; read-out: Inhibitory Activity (IC50, nM) MAO-B
T3 construct: purchased Sigma-Aldrich
T3 sequence (P27338 1-520): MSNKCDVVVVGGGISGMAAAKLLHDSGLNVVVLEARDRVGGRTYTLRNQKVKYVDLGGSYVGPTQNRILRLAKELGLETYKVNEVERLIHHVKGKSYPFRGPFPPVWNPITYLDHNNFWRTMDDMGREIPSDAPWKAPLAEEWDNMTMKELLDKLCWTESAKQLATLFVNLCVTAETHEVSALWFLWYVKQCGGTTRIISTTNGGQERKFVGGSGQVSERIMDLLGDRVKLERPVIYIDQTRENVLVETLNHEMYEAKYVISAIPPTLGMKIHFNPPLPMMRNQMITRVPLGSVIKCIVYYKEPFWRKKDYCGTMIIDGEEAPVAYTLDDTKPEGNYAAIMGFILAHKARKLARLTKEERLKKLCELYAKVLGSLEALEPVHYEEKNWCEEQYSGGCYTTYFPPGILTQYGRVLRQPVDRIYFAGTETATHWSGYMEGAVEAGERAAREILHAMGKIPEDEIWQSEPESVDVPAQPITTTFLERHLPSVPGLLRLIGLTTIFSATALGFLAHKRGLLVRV
Outline: as §1

[3] = biological target: T4, recombinant human DAO (diamine oxidase) (Homo sapiens, UniProt P19801); assay: Activity on recombinant human DAO, method similar to the VAP-1 assay; settings: substrate 1 mM putrescine; read-out: Inhibitory Activity (IC50, nM) DAO
T4 construct: purchased R&D systems
T4 sequence (P19801 20-751): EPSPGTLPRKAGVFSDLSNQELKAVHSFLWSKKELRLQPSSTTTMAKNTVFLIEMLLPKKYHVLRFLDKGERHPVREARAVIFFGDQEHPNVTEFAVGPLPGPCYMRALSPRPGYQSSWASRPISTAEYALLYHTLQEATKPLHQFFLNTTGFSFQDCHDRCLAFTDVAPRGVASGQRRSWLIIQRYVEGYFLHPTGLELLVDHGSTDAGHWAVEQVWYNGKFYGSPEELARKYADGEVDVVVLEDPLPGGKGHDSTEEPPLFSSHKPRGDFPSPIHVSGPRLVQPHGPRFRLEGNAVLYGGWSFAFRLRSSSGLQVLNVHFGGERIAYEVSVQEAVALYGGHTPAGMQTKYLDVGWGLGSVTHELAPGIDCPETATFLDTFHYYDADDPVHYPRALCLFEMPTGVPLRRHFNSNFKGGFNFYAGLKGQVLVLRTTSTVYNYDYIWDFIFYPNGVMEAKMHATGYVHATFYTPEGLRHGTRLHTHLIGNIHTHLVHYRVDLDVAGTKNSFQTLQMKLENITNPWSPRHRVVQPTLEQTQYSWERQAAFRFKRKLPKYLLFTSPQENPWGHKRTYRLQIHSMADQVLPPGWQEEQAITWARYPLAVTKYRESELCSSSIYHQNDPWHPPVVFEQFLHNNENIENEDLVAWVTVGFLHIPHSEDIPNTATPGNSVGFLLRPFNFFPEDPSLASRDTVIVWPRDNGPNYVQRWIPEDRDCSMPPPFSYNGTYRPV
Outline: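 Inhibition of recombinant human diamine oxidase (DAO, R&D systems) was assessed by the same approach as the VAP-1 assay, using 1 mM putrescine as substrate. Hydrogen peroxide formed was detected through an HRP-coupled Amplex Red reaction yielding fluorescent resorufin, read at 544 nm excitation and 590 nm emission. IC50 values came from four-parameter logistic fitting in GraphPad Prism.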

Row | SMILES | IC50 [1] | IC50 (recombinant human VAP-1) | IC50 [2] | IC50 [3]
1 | Cc1cc(-c2ccc(Cn3cnn(C/C(=C/F)CN)c3=O)s2)cc2c1OCC(=O)N2 [Example 91, 6-[5-(1-[(2E)-2-(aminomethyl)-3-fluoroprop-2-en-1-yl]-5-oxo-1,5-dihydro-4H-1,2,4-triazol-4-ylmethyl)thiophen-2-yl]-8-methyl-2H-1,4-benzoxazin-3(4H)-one hydrochloride] | > 10000 nM | 0.9 nM | 3200 nM | 340 nM
2 | CN(C)c1ccc(-c2ccc(Cn3cnn(C/C(=C/F)CN)c3=O)s2)cn1 [Example 42, 2-[(2E)-2-(aminomethyl)-3-fluoroprop-2-en-1-yl]-4-(5-[6-(dimethylamino)pyridin-3-yl]thiophen-2-ylmethyl)-2,4-dihydro-3H-1,2,4-triazol-3-one hydrochloride] | > 100000 nM | 0.7 nM | 5100 nM | 570 nM
3 | Cc1nn(C)cc1-c1ccc(Cn2cnn(C/C(=C/F)CN)c2=O)s1 [Example 157, 2-[(2E)-2-(aminomethyl)-3-fluoroprop-2-en-1-yl]-4-{[5-(1,3-dimethyl-1H-pyrazol-4-yl)thiophen-2-yl]methyl}-2,4-dihydro-3H-1,2,4-triazol-3-one] | > 100000 nM | 2.6 nM | 330 nM | 1700 nM
4 | NC/C(=C\F)Cn1ncn(Cc2ccc(-c3cnc4scnc4c3)s2)c1=O [Example 64, 2-[(2E)-2-(aminomethyl)-3-fluoroprop-2-en-1-yl]-4-[5-([1,3]thiazolo[5,4-b]pyridin-6-yl)thiophen-2-yl]methyl-2,4-dihydro-3H-1,2,4-triazol-3-one hydrochloride] | 6700 nM | 0.7 nM | 2200 nM | 110 nM
5 | CN1C(=O)COc2ncc(-c3ccc(Cn4cnn(C/C(=C/F)CN)c4=O)s3)cc21 [Example 150, 7-[5-({1-[(2E)-2-(aminomethyl)-3-fluoroprop-2-en-1-yl]-5-oxo-1,5-dihydro-4H-1,2,4-triazol-4-yl}methyl)thiophen-2-yl]-1-methyl-1H-pyrido[2,3-b][1,4]oxazin-2(3H)-one] | > 100000 nM | 0.8 nM | 26000 nM | 190 nM
6 | CC(C)n1nccc1-c1ccc(Cn2cnn(C/C(=C/F)CN)c2=O)s1 [Example 161, 2-[(2E)-2-(aminomethyl)-3-fluoroprop-2-en-1-yl]-4-({5-[1-(propan-2-yl)-1H-pyrazol-5-yl]thiophen-2-yl}methyl)-2,4-dihydro-3H-1,2,4-triazol-3-one] | > 100000 nM | 3.7 nM | 15 nM | 4300 nM
7 | NC/C(=C\F)Cn1ncn(Cc2ccc(/C=C/c3cnc4c(c3)NC(=O)CO4)s2)c1=O [Example 124, 7-[(E)-2-[5-[[1-[(E)-2-(aminomethyl)-3-fluoro-allyl]-5-oxo-1,2,4-triazol-4-yl]methyl]-2-thienyl]vinyl]-1H-pyrido[2,3-b][1,4]oxazin-2-one hydrochloride] | > 100000 nM | 0.1 nM | 5100 nM | 270 nM
8 | CCn1cc(-c2ccc(Cn3cnn(C/C(=C/F)CN)c3=O)s2)cn1 [Example 153, 2-[(2E)-2-(aminomethyl)-3-fluoroprop-2-en-1-yl]-4-{[5-(1-ethyl-1H-pyrazol-4-yl)thiophen-2-yl]methyl}-2,4-dihydro-3H-1,2,4-triazol-3-one] | > 100000 nM | 1.3 nM | 1900 nM | 4700 nM

Now from value to compound:

Row | IC50 [1] | IC50 (recombinant human VAP-1) | IC50 [2] | IC50 [3] | SMILES
9 | > 100000 nM | 2.5 nM | 170 nM | 6800 nM | NC/C(=C\F)Cn1ncn(Cc2ccc(-c3csc(CO)c3)s2)c1=O [Example 164, 2-[(2E)-2-(aminomethyl)-3-fluoroprop-2-en-1-yl]-4-{[5′-(hydroxymethyl)-2,3′-bithiophen-5-yl]methyl}-2,4-dihydro-3H-1,2,4-triazol-3-one]
10 | > 100000 nM | 1.6 nM | 1500 nM | 1200 nM | CCn1cc(-c2ccc(Cn3cnn(C/C(=C/F)CN)c3=O)s2)ccc1=O [Example 194, 5-[5-({1-[(2E)-2-(aminomethyl)-3-fluoroprop-2-en-1-yl]-5-oxo-1,5-dihydro-4H-1,2,4-triazol-4-yl}methyl)thiophen-2-yl]-1-ethylpyridin-2(1H)-one]
11 | > 100000 nM | 7.7 nM | 570 nM | 1000 nM | NC/C(=C\F)Cn1ncn(Cc2ccc(-c3ccc(OCC4CC4)nc3)s2)c1=O [Example 174, 2-[(2E)-2-(aminomethyl)-3-fluoroprop-2-en-1-yl]-4-({5-[6-(cyclopropylmethoxy)pyridin-3-yl]thiophen-2-yl}methyl)-2,4-dihydro-3H-1,2,4-triazol-3-one]
12 | > 100000 nM | 12 nM | 340 nM | 4500 nM | NC/C(=C\F)Cn1ncn(Cc2ccc(Cc3ccc(OC(F)(F)F)cc3)s2)c1=O [Example 168, 2-[(2E)-2-(aminomethyl)-3-fluoroprop-2-en-1-yl]-4-({5-[4-(trifluoromethoxy)benzyl]thiophen-2-yl}methyl)-2,4-dihydro-3H-1,2,4-triazol-3-one]
